This passage reports IC50 and solubility results from US20220411388A1, “SUBSTITUTED IMIDAZOLE CARBOXAMIDES AND THEIR USE IN THE TREATMENT OF MEDICAL DISORDERS” (Bial - R&D Investments, S.A., priority 2019, published 2022).

SMILES strings stand for the structures. Values after ≈ are worked out from the molar mass of the structure shown.

The target in one series is T1, acid ceramidase (hACR) (Homo sapiens, UniProt Q13510).
T1 construct: expressed in transfected cells
T1 sequence (Q13510 22-395): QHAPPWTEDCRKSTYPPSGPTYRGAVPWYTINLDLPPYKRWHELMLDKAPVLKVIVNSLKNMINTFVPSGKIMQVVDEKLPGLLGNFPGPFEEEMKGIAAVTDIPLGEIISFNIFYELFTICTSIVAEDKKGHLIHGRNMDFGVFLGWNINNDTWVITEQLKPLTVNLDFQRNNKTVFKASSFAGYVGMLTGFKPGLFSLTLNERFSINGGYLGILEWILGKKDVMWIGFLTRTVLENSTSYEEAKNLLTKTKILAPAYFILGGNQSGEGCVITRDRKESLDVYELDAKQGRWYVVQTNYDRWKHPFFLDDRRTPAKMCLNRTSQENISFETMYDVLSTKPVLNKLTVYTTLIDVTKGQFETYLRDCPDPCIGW
Kind of series: Acid ceramidase inhibition, biochemical fluorescent assay with cell lysates overexpressing acid ceramidase (substrate Rbm14-12). As to conditions: cell lysate, 1 hr preincubation at RT, pH 4.5, Rbm14-12 6.3 μM; read-out: IC50 hACR. The method in brief:
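Enzyme source was lysate from cells overexpressing acid ceramidase, 10 µg protein per reaction. Compounds were preincubated 1 h at RT in 25 mM NaAc, 100 mM NaCl, pH 4.5.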

The nature of series [1]: Compound solubility in water. It counts as physicochemical.

With `Cc1cn(C(=O)NCCc2ccccc2)c(OCCN2CCN(C)CC2)n1` [Example 190, 4-Methyl-2-(2-(4-methylpiperazin-1-yl)ethoxy)-N-phenethyl-1H-imidazole-1-carboxamide], the concentration for half-maximal inhibition (IC50) at acid ceramidase (hACR) is < 200 nM. Moreover, the concentration in solution in series [1] (solubility) was 39 µg/mL (≈ 105 µM).

On to `O=C(NCCC1CCCC1(F)F)n1cc(Cl)nc1OCCN1CCOCC1` (centres unmarked) [Example 191, 4-Chloro-N-(2-(2,2-difluorocyclopentyl)ethyl)-2-(2-morpholinoethoxy)-1H-imidazole-1-carboxamide], for which the IC50 on acid ceramidase (hACR) was 200 to 1000 nM. For the same molecule, in series [1], the concentration in solution (solubility) was 33 µg/mL (≈ 81.1 µM).

In the case of `COc1nc(-c2cccnc2N2CCN(C)CC2)cn1C(=O)NCC#CC(C)C` [Example 194, 2-Methoxy-N-(4-methylpent-2-yn-1-yl)-4-(2-(4-methylpiperazin-1-yl)pyridin-3-yl)-1H-imidazole-1-carboxamide], the half-inhibitory concentration (IC50) at acid ceramidase (hACR) was > 1000 nM. The solubility in series [1] was found to be 45 µg/mL (≈ 113 µM).

With `COc1nc(-c2cccnc2N2CCN(C)CC2)cn1C(=O)NCCCC1(C(F)(F)F)CC1` [Example 195], the half-inhibitory concentration (IC50) on acid ceramidase (hACR) is > 1000 nM. Besides, the concentration in solution in series [1] (solubility) came to 35 µg/mL (≈ 75 µM).

As to `Cc1cn(C(=O)NCC#Cc2ccccc2)c(OCCN2CCOCC2)n1` [Example 196, 4-Methyl-2-(2-morpholinoethoxy)-N-(3-phenylprop-2-yn-1-yl)-1H-imidazole-1-carboxamide], the IC50 on acid ceramidase (hACR) was < 200 nM. Also, in series [1], the solubility stood at 31 µg/mL (≈ 84.1 µM).

Take `Cc1cn(C(=O)NCC#Cc2ccccc2)c(OCCN2CCN(C)CC2)n1` [Example 197, 4-Methyl-2-(2-(4-methylpiperazin-1-yl)ethoxy)-N-(3-phenylprop-2-yn-1-yl)-1H-imidazole-1-carboxamide]: at acid ceramidase (hACR), the IC50 was < 200 nM. This molecule also had a solubility in series [1] of 38 µg/mL (≈ 99.6 µM).

Regarding `Cc1cn(C(=O)NCCCC(F)(F)F)c(OCCN2CCN(C)CC2)n1` [Example 198, 4-Methyl-2-(2-(4-methylpiperazin-1-yl)ethoxy)-N-(4,4,4-trifluorobutyl)-1H-imidazole-1-carboxamide], the half-inhibitory concentration (IC50) on acid ceramidase (hACR) was in the range of 200 to 1000 nM. In addition, the solubility in series [1] was 38 µg/mL (≈ 101 µM).

Regarding `Cc1cn(C(=O)NCCOc2ccccc2)c(OCCN2CCN(C)CC2)n1` [Example 199, 4-Methyl-2-(2-(4-methylpiperazin-1-yl)ethoxy)-N-(2-phenoxyethyl)-1H-imidazole-1-carboxamide], the concentration for half-maximal inhibition (IC50) on acid ceramidase (hACR) is < 200 nM. This molecule returned a solubility in series [1] of 50 µg/mL (≈ 129 µM).

For the molecule `Cc1cn(C(=O)NCCCC2(C(F)(F)F)CC2)c(OCCN2CCN(C)CC2)n1` [Example 200, 4-Methyl-2-(2-(4-methylpiperazin-1-yl)ethoxy)-N-(3-(1-(trifluoromethyl)cyclopropyl)propyl)-1H-imidazole-1-carboxamide], the IC50 at acid ceramidase (hACR) is < 200 nM. Besides, the solubility in series [1] was 49 µg/mL (≈ 117 µM).

With `Cc1cn(C(=O)NCC#CCc2ccccc2)c(OCCN2CCN(C)CC2)n1` [Example 201, 4-Methyl-2-(2-(4-methylpiperazin-1-yl)ethoxy)-N-(4-phenylbut-2-ynyl)-1H-imidazole-1-carboxamide], on acid ceramidase (hACR), the IC50 is < 200 nM. The solubility in series [1] was 39 µg/mL (≈ 98.6 µM).

As for `CN1CCN(CCOc2nc(-c3ccccc3)cn2C(=O)NCC#Cc2ccccc2)CC1` [Example 202], the IC50 at acid ceramidase (hACR) was < 200 nM. Moreover, the concentration in solution in series [1] (solubility) came to 7 µg/mL (≈ 15.8 µM).

For `Cc1cn(C(=O)NCc2ccc(-c3ccccc3)cc2)c(OCCN2CCN(C)CC2)n1` [Example 203, N-(Biphenyl-4-ylmethyl)-4-methyl-2-(2-(4-methylpiperazin-1-yl)ethoxy)-1H-imidazole-1-carboxamide], the half-maximal inhibitory concentration (IC50) on acid ceramidase (hACR) is < 200 nM. Also, the concentration in solution in series [1] (solubility) came to 30 µg/mL (≈ 69.2 µM).

On to `CN1CCC(c2cn(C(=O)NCCC#Cc3ccccc3)cn2)CC1` [Example 204, 4-(1-Methylpiperidin-4-yl)-N-(4-phenylbut-3-yn-1-yl)-1H-imidazole-1-carboxamide], for which the IC50 on acid ceramidase (hACR) is < 200 nM. The solubility in series [1] was determined as 31 µg/mL (≈ 92.1 µM).

What is called IC50 is the midpoint of a concentration-inhibition curve. As usually defined, the solubility is the dissolved amount per volume that the medium holds.
